This passage reports MIC results from ChEMBL document CHEMBL1177855, “Synthesis of some N-alkyl substituted urea derivatives as antibacterial and antifungal agents” (2010).

Values after ≈ are worked out from the molar mass of the structure shown.

Type in all cases: functional
The test system of one test is Escherichia coli. Nature of the test: Antibacterial activity against Escherichia coli ATCC 35218 after 24 hrs by MTT assay. The settings on record: ATCC 35218, 24 h. (Tetrazolium dyes change colour on reduction, which living cells bring about.)
Another test concerns Pseudomonas aeruginosa. Nature of the test: Antibacterial activity against Pseudomonas aeruginosa ATCC 13525 after 24 hrs by MTT assay. The settings on record: ATCC 13525, 24 h.
A further test has as its system Bacillus subtilis. Nature of the test: Antibacterial activity against Bacillus subtilis ATCC 6633 after 24 hrs by MTT assay. The settings on record: ATCC 6633, 24 h.
Another test deals with Staphylococcus aureus. Nature of the test: Antibacterial activity against Staphylococcus aureus ATCC 6538 after 24 hrs by MTT assay. The settings on record: ATCC 6538, 24 h.
Another test concerns Aspergillus niger. Nature of the test: Antifungal activity against Aspergillus niger ATCC 16404 after 24 hrs by MTT assay. The settings on record: ATCC 16404, 24 h.
The next test deals with Trichophyton rubrum. Nature of the test: Antifungal activity against Trichophyton rubrum ATCC 10218 after 24 hrs by MTT assay. The settings on record: ATCC 10218, 24 h.

Broadly, the MIC is the lowest concentration that inhibits growth of the organism. High values mean a less susceptible organism, low ones a more susceptible organism. Consider `O=C(N1CCOCC1)N1CCCc2ccccc21`, for which the MIC against Escherichia coli was over 50 µg/mL; in the test with Pseudomonas aeruginosa, 8.2 µg/mL (≈ 33.3 µM); against Bacillus subtilis, over 50 µg/mL; with Staphylococcus aureus it was over 50 µg/mL; against Aspergillus niger, 12.5 µg/mL (≈ 50.7 µM); in the test on Trichophyton rubrum it was 12.5 µg/mL (≈ 50.7 µM).

For `CCN(CC)C(=O)Nc1ccc(F)cc1`, the MIC is 25 µg/mL (≈ 119 µM) against Escherichia coli; 12.5 µg/mL (≈ 59.5 µM) against Pseudomonas aeruginosa; 6.2 µg/mL (≈ 29.5 µM) in the test with Bacillus subtilis; over 50 µg/mL with Staphylococcus aureus; over 50 µg/mL in the test with Aspergillus niger; 32.6 µg/mL (≈ 155 µM) in the test with Trichophyton rubrum.

With `O=C(Nc1cc(Cl)cc(Cl)c1)N1CCOCC1`, the MIC was 12.5 µg/mL (≈ 45.4 µM) against Escherichia coli; 8.8 µg/mL (≈ 32 µM) against Pseudomonas aeruginosa; 6.2 µg/mL (≈ 22.5 µM) in the test with Bacillus subtilis; over 50 µg/mL in the test with Staphylococcus aureus; over 50 µg/mL against Aspergillus niger; 12.5 µg/mL (≈ 45.4 µM) in the test on Trichophyton rubrum.

Regarding `CC(=O)N1CCN(c2ccc(OCC3COC(Cn4ccnc4)(c4ccc(Cl)cc4Cl)O3)cc2)CC1` (stereo not given) [KETOCONAZOLE], the results for the MIC in the test with Aspergillus niger and with Trichophyton rubrum were 7.8 µg/mL (≈ 14.7 µM) and 3.9 µg/mL (≈ 7.34 µM), respectively.

For the compound `Cc1ccc(NC(=O)N2CCOCC2)cc1`, the minimal inhibitory concentration (MIC) is 7.2 µg/mL (≈ 32.7 µM) with Escherichia coli; over 50 µg/mL against Pseudomonas aeruginosa; over 50 µg/mL in the test on Bacillus subtilis; over 50 µg/mL in the test with Staphylococcus aureus; over 50 µg/mL in the test on Aspergillus niger; 38.4 µg/mL (≈ 174 µM) against Trichophyton rubrum.

Regarding `O=C(Nc1ccc(Br)cc1)N1CCOCC1`, the minimum inhibitory concentration (MIC) against Escherichia coli was 3.1 µg/mL (≈ 10.9 µM); against Pseudomonas aeruginosa, 37.1 µg/mL (≈ 130 µM); with Bacillus subtilis, over 50 µg/mL; against Staphylococcus aureus, over 50 µg/mL; against Aspergillus niger, over 50 µg/mL; against Trichophyton rubrum, over 50 µg/mL.

On to `CCN(CC)C(=O)Nc1ccc(Cl)cc1Cl`, for which the MIC with Escherichia coli was over 50 µg/mL; in the test on Pseudomonas aeruginosa, over 50 µg/mL; against Bacillus subtilis, over 50 µg/mL; with Staphylococcus aureus it was over 50 µg/mL; with Aspergillus niger, 45.2 µg/mL (≈ 173 µM); against Trichophyton rubrum, over 50 µg/mL.

Turning to `O=C(Nc1ccccc1Cl)N1CCOCC1`, the MIC against Escherichia coli was 3.1 µg/mL (≈ 12.9 µM); in the test with Pseudomonas aeruginosa, over 50 µg/mL; in the test with Bacillus subtilis, 3.1 µg/mL (≈ 12.9 µM); against Staphylococcus aureus, over 50 µg/mL; with Aspergillus niger, over 50 µg/mL; in the test with Trichophyton rubrum, over 50 µg/mL.

As to `O=C(Nc1cccc2cccnc12)N1CCOCC1`, the minimal inhibitory concentration (MIC) in the test on Escherichia coli is over 50 µg/mL; in the test with Pseudomonas aeruginosa, 25.3 µg/mL (≈ 98.3 µM); against Bacillus subtilis, 38.7 µg/mL (≈ 150 µM); with Staphylococcus aureus it was over 50 µg/mL; in the test with Aspergillus niger it was over 50 µg/mL; against Trichophyton rubrum, 40.8 µg/mL (≈ 159 µM).

Turning to `O=C(Nc1ccc(Cl)cc1Cl)N1CCOCC1`, the MIC against Escherichia coli was 12.5 µg/mL (≈ 45.4 µM); against Pseudomonas aeruginosa it was 50 µg/mL (≈ 182 µM); against Bacillus subtilis, over 50 µg/mL; with Staphylococcus aureus it was over 50 µg/mL; against Aspergillus niger, over 50 µg/mL; in the test on Trichophyton rubrum it was over 50 µg/mL.

Take `O=C(Nc1ccccc1)N1CCOCC1`: the MIC with Escherichia coli was 6.2 µg/mL (≈ 30.1 µM); against Pseudomonas aeruginosa, 22 µg/mL (≈ 107 µM); against Bacillus subtilis, over 50 µg/mL; with Staphylococcus aureus it was over 50 µg/mL; with Aspergillus niger, over 50 µg/mL; against Trichophyton rubrum, over 50 µg/mL.

Turning to `COc1ccc(NC(=O)N2CCOCC2)cc1`, the MIC with Escherichia coli is 7.5 µg/mL (≈ 31.7 µM); in the test with Pseudomonas aeruginosa it was 12.5 µg/mL (≈ 52.9 µM); with Bacillus subtilis, over 50 µg/mL; in the test on Staphylococcus aureus, over 50 µg/mL; in the test with Aspergillus niger, over 50 µg/mL; against Trichophyton rubrum, 12.5 µg/mL (≈ 52.9 µM).

`CCN(CC)C(=O)Nc1ccc(C(C)C)cc1`: the MIC in the test on Escherichia coli was over 50 µg/mL; against Pseudomonas aeruginosa it was 12.5 µg/mL (≈ 53.3 µM); against Bacillus subtilis it was over 50 µg/mL; against Staphylococcus aureus it was over 50 µg/mL; in the test with Aspergillus niger, over 50 µg/mL; with Trichophyton rubrum it was over 50 µg/mL.

On to `CC1(C)S[C@@H]2[C@H](NC(=O)Cc3ccccc3)C(=O)N2[C@H]1C(=O)O` [PENICILLIN G], for which the MIC against Escherichia coli was over 50 µg/mL; against Pseudomonas aeruginosa it was 6.2 µg/mL (≈ 18.5 µM); in the test with Bacillus subtilis it was 1.6 µg/mL (≈ 4.78 µM); with Staphylococcus aureus, 2 µg/mL (≈ 5.98 µM).

Consider `O=C(Nc1ccc(F)cc1F)N1CCOCC1`, for which the MIC against Escherichia coli is 4.2 µg/mL (≈ 17.3 µM); in the test with Pseudomonas aeruginosa, over 50 µg/mL; in the test with Bacillus subtilis, over 50 µg/mL; in the test on Staphylococcus aureus, over 50 µg/mL; against Aspergillus niger, over 50 µg/mL; with Trichophyton rubrum, 18.2 µg/mL (≈ 75.1 µM).

`O=C(Nc1ccccc1F)N1CCOCC1`: the MIC against Escherichia coli was 2.1 µg/mL (≈ 9.37 µM); with Pseudomonas aeruginosa, 12.5 µg/mL (≈ 55.7 µM); in the test on Bacillus subtilis, 1.6 µg/mL (≈ 7.14 µM); in the test with Staphylococcus aureus it was over 50 µg/mL; against Aspergillus niger, over 50 µg/mL; against Trichophyton rubrum, 3.1 µg/mL (≈ 13.8 µM).

Consider `CC(C)c1ccc(NC(=O)N2CCOCC2)cc1`, for which the MIC is 7.2 µg/mL (≈ 29 µM) against Escherichia coli; 8 µg/mL (≈ 32.2 µM) in the test on Pseudomonas aeruginosa; over 50 µg/mL against Bacillus subtilis; over 50 µg/mL against Staphylococcus aureus; over 50 µg/mL in the test on Aspergillus niger; 20.7 µg/mL (≈ 83.4 µM) against Trichophyton rubrum.

As to `CCN(CC)C(=O)Nc1ccc(Br)cc1`, the minimal inhibitory concentration (MIC) in the test with Escherichia coli was 25 µg/mL (≈ 92.2 µM); against Pseudomonas aeruginosa, over 50 µg/mL; with Bacillus subtilis, over 50 µg/mL; in the test with Staphylococcus aureus, over 50 µg/mL; against Aspergillus niger, 23 µg/mL (≈ 84.8 µM); against Trichophyton rubrum, over 50 µg/mL.

`CCN(CC)C(=O)Nc1ccccc1F`: the MIC against Escherichia coli is 25 µg/mL (≈ 119 µM); in the test on Pseudomonas aeruginosa, over 50 µg/mL; in the test on Bacillus subtilis, 12.5 µg/mL (≈ 59.5 µM); in the test on Staphylococcus aureus, over 50 µg/mL; against Aspergillus niger, over 50 µg/mL; with Trichophyton rubrum, over 50 µg/mL.

`O=C(Nc1ccc2c(c1)Cc1ccccc1-2)N1CCOCC1`: the MIC in the test with Escherichia coli was over 50 µg/mL; against Pseudomonas aeruginosa, 31.5 µg/mL (≈ 107 µM); in the test on Bacillus subtilis, 40.2 µg/mL (≈ 137 µM); with Staphylococcus aureus, over 50 µg/mL; in the test with Aspergillus niger, over 50 µg/mL; in the test with Trichophyton rubrum, 31.2 µg/mL (≈ 106 µM).

Take `CCN(CC)C(=O)Nc1ccc(F)cc1F`: the MIC in the test with Escherichia coli is 25 µg/mL (≈ 110 µM); with Pseudomonas aeruginosa, over 50 µg/mL; against Bacillus subtilis it was 12.5 µg/mL (≈ 54.8 µM); against Staphylococcus aureus, over 50 µg/mL; in the test with Aspergillus niger, over 50 µg/mL; in the test with Trichophyton rubrum, over 50 µg/mL.

For the compound `O=C(Nc1ccc(F)cc1)N1CCOCC1`, the MIC in the test with Escherichia coli was 1.6 µg/mL (≈ 7.14 µM); in the test with Pseudomonas aeruginosa it was 6.2 µg/mL (≈ 27.6 µM); in the test on Bacillus subtilis, over 50 µg/mL; in the test on Staphylococcus aureus, over 50 µg/mL; with Aspergillus niger it was over 50 µg/mL; against Trichophyton rubrum, 3.5 µg/mL (≈ 15.6 µM).

As for `NC[C@H]1O[C@H](O[C@H]2[C@H](O)[C@@H](O[C@H]3O[C@H](CO)[C@@H](O)[C@H](N)[C@H]3O)[C@H](N)C[C@@H]2N)[C@H](O)[C@@H](O)[C@@H]1O` [KANAMYCIN], the MIC with Escherichia coli came to 3.1 µg/mL (≈ 6.4 µM); against Pseudomonas aeruginosa it was 3.1 µg/mL (≈ 6.4 µM); against Bacillus subtilis, 0.4 µg/mL (≈ 0.826 µM); against Staphylococcus aureus, 1 µg/mL (≈ 2.06 µM).
